# Measurements taken from the RepoRT retention time repository.
# Assay: Waters ACQUITY UPLC BEH C18, 100 × 2.1 mm, 1.7 µm, 40 °C, 0.3 to 0.4 mL/min, estimated dead time 0.63 min; A: water + 0.1% formic acid; B: methanol + 0.1% formic acid; gradient (min/%B) 0/0.5 0.1/0.5 10/80 10.1/99.5 12/99.5
# Details: stereoisomer not certain
row,SMILES,LC retention time [min]
1,CC1(C)CC(=O)C2(C)CCC3(C)C(=CCC4C5(C)CCC(OC6OC(C(=O)O)C(O)C(O)C6OC6OC(CO)C(O)C(O)C6O)C(C)(CO)C5CCC43C)C2C1 (configuration not stated),7.84
2,CC1C2CCC3C4CC=C5CC(N(C)C)CCC5(C)C4CCC32CN1C (configuration not stated),3.35
3,O=C1CCC(C(=O)O)N1 (configuration not stated),1.73
4,COc1ccc2cc1Oc1ccc(cc1)CC1=NCCc3cc(OC)c(cc31)Oc1c(OC)c(OC)c(OC)c3c1C(C2)N(C)CC3 (configuration not stated),4.25
5,COc1cc(-c2[o+]c3cc(O)cc(O)c3cc2OC2OC(CO)C(O)C(O)C2O)cc(OC)c1O (configuration not stated),3.19
6,CCC(C)C(N)C(=O)NC(CC(=O)O)C(=O)O (configuration not stated),1.87
7,O=C(O)C1CCC(=O)N1CC1(O)OC(CO)C(O)C1O (configuration not stated),1.77
8,CC(C)=CCc1cc(-c2coc3cc(O)c(CC=C(C)C)c(O)c3c2=O)cc(O)c1O,8.06
9,O=C(C=Cc1ccc(O)cc1)OC1C(OC2C(Oc3ccc(-c4cc(=O)c5c(O)cc(O)cc5o4)cc3)OC(C(=O)O)C(O)C2O)OC(C(=O)O)C(O)C1O (configuration not stated),4.77
10,O=C1CC(c2ccc(O)c(O)c2)Oc2cc(O)cc(O)c21 (configuration not stated),5.35
11,CCCCCCCCNC(O)CCc1ccc(O)c(OC)c1 (configuration not stated),5.25
12,O=C1CC(c2ccccc2)Oc2ccccc21 (configuration not stated),8.5
13,O=c1cc(-c2ccccc2)oc2cc(O)c(O)c(O)c12,6.4
14,O=C(O)CC(=O)OCC1OC(Oc2cc(O)c3c(=O)cc(-c4ccc(O)c(O)c4)oc3c2)C(O)C(O)C1O (configuration not stated),4.59
15,COC1OC2c3cc4c(cc3CCN(C)C2c2ccc3c(c21)OCO3)OCO4 (configuration not stated),4.65
16,CCC1C2CC3C4N(C)c5ccccc5C45CC(C2C5O)N3C1O (configuration not stated),4.13
17,CCCC1CCCCN1 (configuration not stated),2.78
18,CCC1(O)C(=O)OCc2c1cc1n(c2=O)Cc2cc3c([N+](=O)[O-])cccc3nc2-1 (configuration not stated),5.87
19,COC(=O)C1C2CC3c4[nH]c5cc(OC)ccc5c4CCN3CC2CC(OC(=O)c2cc(OC)c(OC)c(OC)c2)C1OC (configuration not stated),6.12
20,O=c1c(OC2OCC(O)C(O)C2O)c(-c2cc(O)c(O)c(O)c2)oc2cc(O)cc(O)c12 (configuration not stated),3.9
21,CCC(C)=CCCC(C)(OC1OC(COC2OCC(O)C(O)C2O)C(O)C(O)C1O)C1CCC2(C)C3CCC4C(C)(C)C(OC5OC(CO)C(O)C(O)C5OC5OC(CO)C(O)C(O)C5O)CCC4(C)C3CC(O)C12 (configuration not stated),6.19

row,SMILES,LC retention time [min]
1,COc1cc(C=Cc2ccc(O)cc2)cc(OC)c1,8.02
2,CC(C)=CCC=C(C)C1CCC2(C)C1C(O)CC1C3(C)CCC(OC4OC(CO)C(O)C(O)C4O)C(C)(C)C3CCC12C (configuration not stated),7.63
3,Nc1ncnc2c1ncn2C1CC(O)C(CO)O1 (configuration not stated),1.93
4,O=c1ccn(C2OC(CO)C(O)C2O)c(=O)[nH]1 (configuration not stated),1.8
5,CC1OC(OC2C(c3c(O)cc4oc(-c5ccc(O)c(O)c5)cc(=O)c4c3O)OC(CO)C(O)C2O)C(O)C(O)C1O (configuration not stated),4.48
6,COc1cc(C=CC(=O)NCCCCC(N)C(=O)O)ccc1O (configuration not stated),3.08
7,C=CC1CN2CCC1CC2C(O)c1ccnc2ccccc12 (configuration not stated),3.09
8,CC1OC(OC2C(O)C(C)OC(OCC3OC(Oc4c(-c5ccc(O)cc5)oc5cc(O)cc(O)c5c4=O)C(O)C(O)C3O)C2O)C(O)C(O)C1O (configuration not stated),3.98
9,O=C1CC(c2ccc(OC3OC(CO)C(O)C(O)C3O)cc2)Oc2cc(O)ccc21 (configuration not stated),4.08
10,CC1OC(OC2C(OC3C(OC4CCC5(C)C(CCC6(C)C5CC=C5C7CC(C)(C)CC(O)C7(C)CCC56C)C4(C)CO)OC(C(=O)O)C(O)C3O)OC(C(=O)O)C(O)C2O)C(O)C(O)C1O (configuration not stated),7.06
11,Cc1c2ccncc2c(C)c2c1[nH]c1ccccc12,4.93
12,COc1c(CC=C(C)C)c(O)cc2oc(-c3ccc(O)cc3O)cc12,8.35
13,CC1OC(Oc2c(-c3ccc(O)c(O)c3)oc3cc(OC4OC(CO)C(O)C(O)C4O)cc(O)c3c2=O)C(OC2OC(COC(=O)C=Cc3ccc(O)cc3)C(O)C(O)C2O)C(O)C1O (configuration not stated),4.48
14,CC1OC(OCC2OC(Oc3c(-c4ccc(O)cc4)oc4cc(OC5OC(C)C(O)C(O)C5O)cc(O)c4c3=O)C(O)C(O)C2O)C(O)C(O)C1O (configuration not stated),3.4
15,O=C(OC1Cc2c(O)cc(O)cc2OC1c1cc(O)c(O)c(O)c1)c1cc(O)c(O)c(O)c1 (configuration not stated),3.46
16,CCC(C)C(=O)OC1C(O)C2C(CN3CC(C)CCC3C2(C)O)C2CC34OC5(O)C(OC(=O)C(C)(O)C(C)OC(C)=O)CCC3(C)C5CC(O)C4C21O (configuration not stated),5.04
17,O=C(O)C1OC(Oc2c(-c3ccc(O)cc3)oc3cc(O)cc(O)c3c2=O)C(O)C(O)C1O (configuration not stated),4.34
18,O=C1OCC(Cc2cccc(O)c2)C1Cc1cccc(O)c1 (configuration not stated),6.18
19,CS(=O)CCCCC(=NOS(=O)(=O)O)SC1OC(CO)C(O)C(O)C1O (configuration not stated),1.74
20,O=c1c(-c2ccc(O)cc2)coc2cc(O)ccc12,5.15
21,C=CCc1ccc(O)c(-c2ccc(O)c(CC=C)c2)c1,8.63

row,SMILES,LC retention time [min]
1,O=c1cc2oc(-c3ccc(O)cc3)ccc-2c(O)c1,3.87
2,C=CC1C(OC2OC(CO)C(O)C(O)C2O)OC(O)=C2C(=O)N3CCc4c([nH]c5ccccc45)C3=CC21 (configuration not stated),5.07
3,CC1CCC2C(C)C3C(CC4C5CC=C6CC(O)CCC6(C)C5CC(O)C43CO)N2C1 (configuration not stated),3.7
4,COc1cc(C(O)C(COC2OC(CO)C(O)C(O)C2O)Oc2c(OC)cc(-c3cc(=O)c4c(O)cc(O)cc4o3)cc2OC)ccc1O (configuration not stated),4.57
5,CC1OC(OC2C(OC3C(OC4CCC5(C)C(CCC6(C)C5CC=C5C7CC(C)(C)CC(O)C7(C)CCC56C)C4(C)CO)OC(C(=O)O)C(O)C3O)OCC(O)C2O)C(O)C(O)C1O (configuration not stated),7.28
6,CC(C)=CCCC(C)(O)C1CCC2(C)C1C(O)CC1C3(C)CCC(OC4OC(CO)C(O)C(O)C4OC4OC(CO)C(O)C(O)C4O)C(C)(C)C3CCC12C (configuration not stated),8.2
7,C[n+]1cc2c3c(ccc2c2ccc4cc5c(cc4c21)OCO5)OCO3,4.85
8,CC(=O)OCC1OC(Oc2c(-c3ccc(O)c(O)c3)oc3cc(O)cc(O)c3c2=O)C(O)C(O)C1O (configuration not stated),4.42
9,O=C(C=Cc1ccc(O)cc1)OCC1OC(OC2C(c3c(O)cc4oc(-c5ccc(O)cc5)cc(=O)c4c3O)OC(CO)C(O)C2O)C(O)C(O)C1O (configuration not stated),4.21
10,O=c1cc(-c2ccc(O)cc2)oc2cc(OC3OC(CO)C(O)C(O)C3O)cc(O)c12 (configuration not stated),4.18
11,COc1cc2c(cc1OC)-c1cc3ccc(OC)c(OC)c3c[n+]1CC2,4.96
12,C=CC12CN(C)C3C4COC(CC41)C1(C(=O)Nc4ccccc41)C32 (configuration not stated),3.21
13,c1ccc2c(c1)CN1CCCC1=N2,2.8
14,COc1cc(CC(CO)C(CO)Cc2ccc(O)c(OC)c2)ccc1O (configuration not stated),4.76
15,O=C(C=Cc1ccc(O)cc1)Oc1cc(O)c2c(=O)c(OC3OC(CO)C(O)C(O)C3O)c(-c3ccc(O)cc3)oc2c1 (configuration not stated),2.35
16,CC(CCC1(O)OC2CC3C4CCC5CC(OC6OC(CO)C(OC7OC(CO)C(O)C(O)C7OC7OC(CO)C(O)C(O)C7O)C(O)C6O)CCC5(C)C4CCC3(C)C2C1C)COC1OC(CO)C(O)C(O)C1O (configuration not stated),4.91
17,CC(C)CC(N)C(=O)NC(CC(C)C)C(=O)O (configuration not stated),3.29
18,COc1ccc2c(c1)[nH]c1c(C)nccc12,4.11
19,Oc1cc(O)c2ccc(-c3ccc(O)c(O)c3)[o+]c2c1,3.59
20,COc1cccc(-c2oc3cc(OC)ccc3c(=O)c2O)c1,6.75
21,O=C(O)C1OC(Oc2ccc(-c3oc4cc(O)c(C5OC(CO)C(O)C(O)C5O)c(O)c4c(=O)c3C3OC(CO)C(O)C(O)C3O)cc2)C(O)C(O)C1O (configuration not stated),4.68

row,SMILES,LC retention time [min]
1,CC(=O)c1cccc2oc(=O)[nH]c12,3.93
2,COc1cc(CC2COC(=O)C2Cc2ccc(O)c(OC)c2)ccc1O (configuration not stated),5.96
3,CCCCCC=CCC=CCCCCCCCC(=O)OCC(O)COP(=O)([O-])OCC[N+](C)(C)C (configuration not stated),9.31
4,COc1cc(C=CC(=O)N2CCC=CC2=O)cc(OC)c1OC,6.83
5,Cc1[nH]ccc2c1[nH]c1cc(=O)ccc12,3.18
6,COc1cc2c(c(OC)c1OC)-c1c(cc(OC)c(OC)c1OC)CC(C)(O)C(C)C2 (configuration not stated),7.59
7,COC(=O)C1CC23CCCN4CCC5(c6ccccc6NC15C2C)C43 (configuration not stated),4.24
8,CC(C)=CCCC(C)(OC1OC(CO)C(O)C(O)C1O)C1CCC2(C)C1C(O)CC1C3(C)CCC(OC4OC(CO)C(O)C(O)C4O)C(C)(C)C3CCC12C (configuration not stated),7.66
9,OCC1OC(Oc2cc3c(O)cc(O)cc3[o+]c2-c2ccc(O)c(O)c2)C(O)C(O)C1O (configuration not stated),2.91
10,CC(=O)OC1CC(COC2OC(CO)C(O)C(O)C2O)CNC12OC1CC3C4CCC5CC(OC6OC(CO)C(OC7OC(CO)C(OC8OCC(O)C(O)C8O)C(O)C7OC7OC(CO)C(O)C(O)C7O)C(O)C6O)CCC5(C)C4CCC3(C)C1C2C (configuration not stated),3.59
11,CS(=O)CCCCCCC#N (configuration not stated),3.43
12,CSCC(NC(=O)CCC(N)C(=O)O)C(=O)O (configuration not stated),2.02
13,Oc1ccc(C=Cc2cc(O)cc3c2C(c2cc(O)cc(O)c2)C(c2ccc(O)cc2)O3)cc1 (configuration not stated),5.81
14,O=C(O)c1cc(=O)c2ccccc2[nH]1,3.11
15,O=C(O)CC(=O)OCC1OC(Oc2cc(O)c3c(=O)cc(-c4ccc(O)cc4)oc3c2)C(O)C(O)C1O (configuration not stated),5.16
16,CCC(C)C(N)C(=O)NC(CCC(=O)O)C(=O)O (configuration not stated),1.98
17,CCOC1OC2c3cc4c(cc3CCN(C)C2c2ccc3c(c21)OCO3)OCO4 (configuration not stated),5.15
18,CCC1C(=O)OCC1Cc1cncn1C (configuration not stated),2.4
19,CN1c2ccccc2C(=O)N2CCc3c([nH]c4ccccc34)C21 (configuration not stated),7.77
